Reference: US8524691B2, “Phosphonated rifamycins and uses thereof for the prevention and treatment of bone and joint infections” (The Medicines Company, priority 2008, dated 2013)
Converted amounts (≈) assume the structure as drawn. Where two headings read alike, the source gives them in different places.

Legend:
[1] = assay type: in vitro ADME; details: for % Conversion (prodrug converted to parent drug after binding to bone): 24 h incubation, 37° C.
Description: Amounts of parent drug “regenerated” from the phosphonated prodrug were measured as follows. Washed bone powder-bound prodrugs from the above experiment were resuspended in 400 μL PBS+2% DMSO or in 400 μL 50% (v/v in PBS+2% DMSO) human or rat serum. The suspension was incubated overnight at 37° C., centrifuged at 13,000 rpm for 2 min and the supernatant was recovered. The amount of regenerated parent drug in the supernatant was determined by measurements using the microbiological assay that was previously described for the prodrugs themselves. The amount of prodrug was deduced from standard curves of known amounts of parent drug that were used as reference for each experiment. The amount of regenerated drug assessed by this bioassay was corroborated by MIC determination. The percentage of drug regenerated in PBS or serum after the overnight incubation (Table 2) was deduced from the difference between the amount of bound prodrug and the amount of regenerated drug (not shown).

S. aureus ATCC 29213 = experiment: Antibacterial susceptibility (MIC), NCCLS broth microdilution; assay type: cell-based; details: for Minimum inhibitory concentration, S. aureus ATCC 29213: CAMHB, 37° C., 18 h; for MIC: Staphylococcus aureus, ATCC29213, 18 h, read-out: Minimum inhibitory concentration, S. aureus ATCC 29213
Description: (§1) Susceptibility of S. aureus strains to the known antibiotics and synthesized compounds was determined by following the guidelines set by NCCLS (M26-A). Compounds were diluted two-fold serially in DMSO and transferred to cation-adjusted Mueller Hinton broth (CAMHB; Becton Dickinson). 50 μL of compounds diluted in CAMHB was mixed with 100 μL of bacteria diluted in CAMHB in 96-well microtiter plates. The final concentration of micro-organisms in the assay was 5×10^5c.f.u. per mL and the final concentration of DMSO in the assay was 1.25%. Assays were set up in duplicate and incubated at 37° C. for 18 h. The lowest concentration of compound that inhibited visible growth was reported as the minimum inhibitory concentration (MIC).

[2] = tested on: S. aureus ATCC 13709^A, Novobiocin and Rifampicin resistant variant; experiment: as above; assay type: cell-based; details: for MIC: Staphylococcus aureus, ATCC13709, read-out: Minimum inhibitory concentration, S. aureus ATCC 13709^A
Description: as §1

[3] = tested on: Novobiocin resistant mutant strain of S. aureus ATCC 13709; experiment: Prophylactic efficacy in rat model of S. aureus bone infection; assay type: in vivo; details: for Measured bacterial titer, test compound: 20 mg/kg parent drug equivalent, tibia 24 h postinfection; for Prophylactic activity in rat bone infection model (in words): 20 mg/kg, 1 day or 5 days prior to infection
Description: To determine the in vivo activity of bisphosphonated prodrugs of Rifamycin derived antibacterials in comparison to their non-bisphosphonated parents, compounds 18, 19, 48a, 59, 66, 89, 95, 102, 110, 142b and 164 and their parent drug rifabutin were used as prophylactic therapeutics in an animal model of infection. Specifically, a spontaneous Novobiocin resistant mutant strain of S. aureus ATCC 13709 (a clinical osteomyelitis isolate), was grown overnight at 37° C. in brain heart infusion broth (BHIB). After 16 h of growth, cells were subcultured into fresh BHIB and incubated for 4 to 5 h at 37° C. The cells were washed twice with phosphate-buffered saline (PBS) and resuspended in BHIB supplemented with 10% (vol./vol.) fetal bovine serum at a density of approximately 10^10 colony forming units (CFU)/ml (based upon turbidimetry). The suspension was aliquoted and a portion was used to check the CFU count. The culture was stored frozen (−80° C.) and was used without subculture. For use as an inoculum the culture was thawed, diluted in PBS and kept in an ice bath until it was used.
Animals were infected as described by O'Reilly et al. (Antimicrobial Agents and Chemotherapy (1992), 36(12): 2693-97) to generate the bone infection. Female CD rats (age, 57 to 70 days; n=5/group; Charles River, St-Constant, Canada) were anaesthetized by isofluorane before and during the surgery. Following complete induction of anesthesia, the rat was placed ventral side up and hair was shaved from the surgical site. The skin over the leg was cleaned and disinfected (proviodine-ethanol 70%). A longitudinal incision below the knee joint was made in the sagital plane. The incision was made over the bone below the “knee joint” (tibia head or condyle) but not completely extending to the ankle. A high speed drill fitted with a 2 mm bulb bit was used to drill a hole into the medullar cavity of the tibia. Rats were injected intra-tibially with 0.05 ml 5% sodium morrhuate (sclerosing agent) and then with 0.05 ml of S. aureus suspension (ca. 2×10^7 CFU/rat). The hole was sealed by applying a small amount of dry dental cement which immediately absorbs fluids and adheres to the site. The wound was closed using 3 metal skin clips. Moxifloxacin (as a positive control) was injected once at 10 mg/kg intravenously 1 h postinfection in saline, while the Rifabutin derived prodrugs (prepared in 0.9% saline) were injected at the dose indicated in Table 3 as a single intravenous bolus at different time points prior to the infection.
Infected rats were sacrificed by CO2 asphyxiation 24 h postinfection to monitor the bacterial CFU count. Infected tibiae were removed, dissected free of soft tissue, and weighed. The bones were ground, 50 mg of charcoal were added and the powder was resuspended in 5 ml 0.9% NaCl, serially diluted and processed for quantitative cultures. Treatment efficacy was measured in terms of Log viable bacteria (Log CFU per gram of bone). […] The limit of detection is 2 Log CFU. Statistical comparisons of viable bacterial counts for the different treated and untreated groups were performed with the Dunnett's multiple-comparison test. Differences were considered significant when the P value was <0.05 when comparing treated infected animals to the untreated infected ones. The doses used, the amount of time separating the treatment from the time of infection and the treatment outcomes are shown in Table 3.

S. aureus ATCC 13709 [4] = experiment: microbe, parasite or virus in culture; assay type: cell-based; details: for Minimum inhibitory concentration, S. aureus ATCC 13709: CAMHB, 37° C., 18 h; for Antibacterial activity (in words, from Table 1): S. aureus MIC; for MIC: Staphylococcus aureus, ATCC13709, 18 h, read-out: Minimum inhibitory concentration, S. aureus ATCC 13709
Description: as §1

S. aureus ATCC 13709 [5] = experiment: microbe, parasite or virus in culture; assay type: cell-based; details: for Serum dependence of antibacterial activity (in words): MIC with versus without serum; for MIC: Staphylococcus aureus, ATCC13709, 18 h
Description: as §1
Susceptibility testing experiments were also carried out in the presence of serum. These experiments were carried out similar to the susceptibility testing with the following modifications. 75 μL of compounds diluted in CAMHB was mixed with 75 μL of bacteria diluted in 100% serum from any given source (commercial pooled mouse serum (MS) and human serum (HS), Equitech-Bio Inc.) or diluted in 8% purified human serum albumin (HSA) (Calbiochem). The final concentration of animal serum in the assay was 50% and the final concentration of purified human serum albumin in the assay was 4%; the concentrations of all other components were identical to those described for susceptibility testing.

[6] = single intravenous bolus 1 day prior to infection
[7] = single intravenous bolus 5 days prior to infection
[8] = read-out: Minimum inhibitory concentration, ATCC 13709 + 50% Human Serum
[9] = read-out: Minimum inhibitory concentration, ATCC 13709 + 50% Mouse Serum
[10] = read-out: Minimum inhibitory concentration, ATCC 13709 + 50% Rat Serum

SMILES	Minimum inhibitory concentration, S. aureus ATCC 29213 (S. aureus ATCC 29213)	Minimum inhibitory concentration, S. aureus ATCC 13709^A [2]	Measured bacterial titer, test compound [3, 6]	Measured bacterial titer, test compound [3, 7]	Prophylactic activity in rat bone infection model (in words) [3]	Minimum inhibitory concentration, S. aureus ATCC 13709 (S. aureus ATCC 13709 [4])	Antibacterial activity (in words, from Table 1) (S. aureus ATCC 13709 [4])	Minimum inhibitory concentration, ATCC 13709 + 50% Human Serum (S. aureus ATCC 13709 [5])	Minimum inhibitory concentration, ATCC 13709 + 50% Mouse Serum (S. aureus ATCC 13709 [5])	Minimum inhibitory concentration, ATCC 13709 + 50% Rat Serum (S. aureus ATCC 13709 [5])	Serum dependence of antibacterial activity (in words) (S. aureus ATCC 13709 [5])	MIC (S. aureus ATCC 29213)	MIC [2]	MIC (S. aureus ATCC 13709 [4])	MIC (S. aureus ATCC 13709 [5]; [8])	MIC (S. aureus ATCC 13709 [5]; [9])	MIC (S. aureus ATCC 13709 [5]; [10])	other results
CCN(CC)CC.CCN(CC)CC.CO[C@H]1/C=C/O[C@@]2(C)Oc3c(C)c(O)c4c(c3C2=O)C2=NC3(CCN(CC(C)C)CC3)N(C(=O)OCc3ccc(OC(=O)CCCC(P(=O)(O)O)P(=O)(O)O)cc3)C2=C(NC(=O)/C(C)=C\C=C\[C@H](C)[C@H](O)[C@@H](C)[C@@H](O)[C@@H](C)[C@H](OC(C)=O)[C@@H]1C)C4=O [Compound 18]	0.125 µg/mL	>128 µg/mL	2.08 ± 0.02 Log CFU/g of bone	2.91 ± 1.33 Log CFU/g of bone	active at 1 day and display activity similar to rifabutin at 5 days	0.125 µg/mL	very low MICs whether in the absence or in the presence of serum	0.125 µg/mL	0.125 µg/mL	0.0156 µg/mL								Release of parent rifabutin from bone powder-bound prodrug (in words) [1]: release significant amounts of the parent rifabutin once bound to bone powder, regardless of the presence of serum; % Conversion (prodrug converted to parent drug after binding to bone) ([1]; 50% Heat Inactivated Rat Serum): 0.55 ± 0.20%; % Conversion (prodrug converted to parent drug after binding to bone) ([1]; 50% Rat Serum): 0.95 ± 0.40%; % Conversion (prodrug converted to parent drug after binding to bone) ([1]; PBS): 0.66 ± 0.03%
CCCC(=O)OCCN(CCCCC(P(=O)(O)O)P(=O)(O)O)CC(=O)O[C@@H]1[C@@H](C)[C@@H](O)[C@@H](C)[C@H](OC(C)=O)[C@H](C)[C@@H](OC)/C=C/O[C@@]2(C)Oc3c(C)c(O)c4c(c3C2=O)C2=NC3(CCN(CC(C)C)CC3)NC2=C(NC(=O)/C(C)=C\C=C\[C@@H]1C)C4=O [Compound 48a]	2 µg/mL (≈ 1.6 µM)	>128 µg/mL	2.53 ± 0.94 Log CFU/g of bone	2.65 ± 0.85 Log CFU/g of bone	more potent than rifabutin at 5 days	2 µg/mL (≈ 1.6 µM)		8 µg/mL	2 µg/mL	0.25 µg/mL	significant increase in antibacterial activity in serum							
CCC(=O)OCOC(=O)NCC(=O)OCCN(CCCCC(P(=O)(O)O)P(=O)(O)O)CC(=O)O[C@@H]1[C@@H](C)[C@@H](O)[C@@H](C)[C@H](OC(C)=O)[C@H](C)[C@@H](OC)/C=C/O[C@@]2(C)Oc3c(C)c(O)c4c(c3C2=O)C2=NC3(CCN(CC(C)C)CC3)NC2=C(NC(=O)/C(C)=C\C=C\[C@@H]1C)C4=O [Compound 59]			1.95 ± 0.06 Log CFU/g of bone				very low MICs whether in the absence or in the presence of serum					0.125 µg/mL (≈ 0.0916 µM)	> 128 µg/mL	0.125 µg/mL (≈ 0.0916 µM)	0.0625 µg/mL	0.0312 µg/mL	0.008 µg/mL	
CO[C@H]1/C=C/O[C@@]2(C)Oc3c(C)c(O)c4c(c3C2=O)C2=NC3(CCN(CC(C)C)CC3)NC2=C(NC(=O)/C(C)=C\C=C\[C@H](C)[C@H](OC(=O)CN(CCCCC(P(=O)(O)O)P(=O)(O)O)CCNC(=O)OCc2ccc(OC(C)=O)cc2)[C@@H](C)[C@@H](O)[C@@H](C)[C@H](OC(C)=O)[C@@H]1C)C4=O [Compound 66]			1.97 ± 0.05 Log CFU/g of bone								significant increase in antibacterial activity in serum	4 µg/mL (≈ 2.92 µM)	> 128 µg/mL	4 µg/mL (≈ 2.92 µM)	4 µg/mL	0.125 µg/mL	0.008 µg/mL	
CCC(=O)OCOC(=O)N[C@@H](CCC(=O)Nc1ccc(CC(P(=O)(O)O)P(=O)(O)O)cc1)C(=O)N(C)CC(=O)O[C@@H]1[C@@H](C)[C@@H](O)[C@@H](C)[C@H](OC(C)=O)[C@H](C)[C@@H](OC)/C=C/O[C@@]2(C)Oc3c(C)c(O)c4c(c3C2=O)C2=NC3(CCN(CC(C)C)CC3)NC2=C(NC(=O)/C(C)=C\C=C\[C@@H]1C)C4=O.N.N [Compound 110]	8 µg/mL	>128 µg/mL	1.94 ± 0.04 Log CFU/g of bone			8 µg/mL		8 µg/mL	0.125 µg/mL	0.0156 µg/mL	significant increase in antibacterial activity in serum							
CCC(=O)OCOC(=O)N(CCCC(P(=O)(O)O)P(=O)(O)O)CCOC(=O)N1C2=C3NC(=O)/C(C)=C\C=C\[C@H](C)[C@H](O)[C@@H](C)[C@@H](O)[C@@H](C)[C@H](OC(C)=O)[C@H](C)[C@@H](OC)/C=C/O[C@@]4(C)Oc5c(C)c(O)c(c(c5C4=O)C2=NC12CCN(CC(C)C)CC2)C3=O [Compound 164]	4 µg/mL (≈ 3.12 µM)	>128 µg/mL	5.48 ± 0.64 Log CFU/g of bone		ineffective at 1 day	4 µg/mL (≈ 3.12 µM)		8 µg/mL	2 µg/mL	0.25 µg/mL	significant increase in antibacterial activity in serum							
